Reference: patent publication US20240245714A1, “COMPOSITION AND METHODS USING COMBINATION OF NARH AND NR TO PRODUCE INTRACELLULAR NICOTINAMIDE ADENINE DINUCLEOTIDE (NAD+)” (SOCIETE DES PRODUITS NESTLE S.A., priority 2021, published 2024)

Assays:
MEF cells = test: NAD+ induction in MEF cells; assay type: cell-based; details: MEF mouse fibroblast, 2 hours, NARH and NR 0.5 mM
Description: (§1) MEF cells were treated with dihydronicotinic acid riboside (NARH) and nicotinamide riboside (NR), alone or in combination for 2 hours. NARH and NR were used at the concentration of 0.5 mM. After treatment, cells were trypsinized and collected for NAD+ and protein content measurements. NAD+ was extracted and quantified using an EnzyChrom NAD/NADH Assay Kit (BioAssay Systems; #E2ND-100) according to the manufacturer's instructions. Proteins were quantified with BCA Protein Assay Kit (Pierce™; #23225). All results are expressed as mean+/−SD of n=2. NARH vs control P=0.7581; NR vs control P=0.5337; NRH+NR vs control P=0.0002.
as §1, with “#23225).” for “#23225). All results are expressed as mean+/−SD of n=2. NARH vs control P=0.7581; NR vs control P=0.5337; NRH+NR vs control P=0.0002.”

RAW 264.7 cells = test: NAD+ induction in RAW 264.7 cells; assay type: cell-based; details: RAW 264.7 mouse macrophages, 2 hours, NARH and NR 0.5 mM
Description: as §1, with “RAW 264.7” for “MEF”, “scraped” for “trypsinized”, “n=2-4.” for “n=2.”, “P=0.8130;” for “P=0.7581;”, “P=0.0788;” for “P=0.5337;”, “P=0.0087.” for “P=0.0002.”
as §1, with “RAW 264.7” for “MEF”, “scraped” for “trypsinized”, “#23225).” for “#23225). All results are expressed as mean+/−SD of n=2. NARH vs control P=0.7581; NR vs control P=0.5337; NRH+NR vs control P=0.0002.”

Question: `O=C(O)C1=CN([C@@H]2O[C@H](CO)[C@@H](O)[C@@H]2O)C=CC1` [NARH, dihydronicotinic acid riboside] was tested. Which “NAD+ induction” value (MEF cells) did it give?
Answer: The value was “not NARH or NR alone, induces NAD+”.

Question: And the “NAD+ induction” value (RAW 264.7 cells)?
Answer: Its value is “not NARH or NR alone, induces NAD+”.

Question: For `NC(=O)c1ccc[n+]([C@@H]2O[C@H](CO)[C@@H](O)[C@H]2O)c1` [NR, nicotinamide riboside], which “NAD+ induction” value (MEF cells) is on record?
Answer: The value was “not NARH or NR alone, induces NAD+”.

Question: And the “NAD+ induction” value (RAW 264.7 cells)?
Answer: Its value is “not NARH or NR alone, induces NAD+”.
